Test results: BigSolDB 2.1

CC[C@@H](C(N)=O)N1CCCC1=O
solubility (mole fraction)
Conditions	in 1,4-dioxane	in acetone	in acetonitrile	in cyclohexane	in ethanol	in ethyl acetate	in isopropanol	in methanol	in n-propanol	in toluene
283.15 K	–	0.00698	0.00909	1.37e-05	0.0384	0.00424	0.0115	0.0814	0.0167	0.00122
288.15 K	0.00718	0.00887	0.0113	1.92e-05	0.0459	0.00539	0.0147	0.0974	0.0207	0.00167
293.15 K	0.00902	0.0111	0.0137	2.61e-05	0.0546	0.00676	0.0185	0.115	0.0252	0.0022
298.15 K	0.0112	0.014	0.0168	3.64e-05	0.0643	0.00847	0.0229	0.136	0.0303	0.00299
303.15 K	0.014	0.0175	0.0203	4.91e-05	0.0758	0.0104	0.0286	0.158	0.0362	0.00393
308.15 K	0.0173	0.0217	0.0245	6.61e-05	0.0885	0.0129	0.0354	0.182	0.0434	0.00524
313.15 K	0.0214	0.0268	0.0292	8.95e-05	0.103	0.0158	0.0435	0.209	0.052	0.00699
318.15 K	0.0263	0.033	0.035	0.00012	0.12	0.0194	0.0537	0.239	0.0614	0.00947
323.15 K	0.0322	0.0405	0.0416	0.00016	0.138	0.0236	0.0663	0.27	0.0729	0.0129
